Where only a bound is given, the exact number is not on record here.

In the experiment the target is T1, GCase (Homo sapiens, UniProt P04062).
T1 construct: endogenous in cells; host or cells: HeLa cells
T1 sequence (P04062 40-536): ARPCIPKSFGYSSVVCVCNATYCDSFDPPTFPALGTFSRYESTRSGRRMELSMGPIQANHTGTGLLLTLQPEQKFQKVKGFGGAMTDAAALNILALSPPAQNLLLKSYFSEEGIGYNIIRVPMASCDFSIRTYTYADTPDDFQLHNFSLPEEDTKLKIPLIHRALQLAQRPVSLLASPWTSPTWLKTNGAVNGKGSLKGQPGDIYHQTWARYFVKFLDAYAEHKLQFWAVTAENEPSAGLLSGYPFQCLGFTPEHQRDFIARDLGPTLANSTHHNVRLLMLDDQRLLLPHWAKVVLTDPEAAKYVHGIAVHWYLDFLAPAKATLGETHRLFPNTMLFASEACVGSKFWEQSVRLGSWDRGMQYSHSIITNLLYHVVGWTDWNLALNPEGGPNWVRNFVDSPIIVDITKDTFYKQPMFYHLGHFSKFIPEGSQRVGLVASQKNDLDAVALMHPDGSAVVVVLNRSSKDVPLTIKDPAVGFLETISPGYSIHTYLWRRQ
Put plainly: activation of GCase in a live cell PFB assay in HELA cells. The class given is cell-based. As to the method:
Exemplary compounds were evaluated for activation of GCase in a live cell PFB assay in HELA cells (essentially as described in Ysselstein et al., “LRRK2 kinase activity regulates lysosomal glucocerebrosidase in neurons derived from Parkinson's disease patients” Nature Communications (2019) 10:5570).

The compound `c1ccc(-c2nnc(C3CCCN(c4cncc(-c5nncs5)n4)C3)s2)cc1` (centres unmarked) [Compound 1, 2-[3-(5-phenyl-1,3,4-thiadiazol-2-yl)piperidin-1-yl]-6-(1,3,4-thiadiazol-2-yl)pyrazine] gave an EC50 of 10 to 50 µM. Under `FC(F)(F)c1cccc(-c2nnc(C3(F)CCCN(c4cnc5cnn(C6COC6)c5n4)C3)s2)n1` (centres unmarked) [Compound 24, 2-(3-fluoro-1-(1-(oxetan-3-yl)-1H-pyrazolo[3,4-b]pyrazin-6-yl)piperidin-3-yl)-5-(6-(trifluoromethyl)pyridin-2-yl)-1,3,4-thiadiazole] stands > 100 µM; under `FC(F)(F)c1cccc(-c2nnc(C3(F)CCCN(c4cnc5ccccc5n4)C3)s2)n1` (centres unmarked) [Compound 13, 2-(3-Fluoro-3-{5-[6-(trifluoromethyl)pyridin-2-yl]-1,3,4-thiadiazol-2-yl}piperidin-1-yl)quinoxaline], 10 to 50 µM; under `FC(F)Cn1ncc2ncc(N3C[C@@H]4[C@H](C3)[C@H]4c3nnc(-c4ccccc4)s3)nc21` [Compound 28, 2-((1R,5S,6R)-3-(1-(2,2-Difluoroethyl)-1H-pyrazolo[3,4-b]pyrazin-6-yl)-3-azabicyclo[3.1.0]hexan-6-yl)-5-phenyl-1,3,4-thiadiazole], 10 to 50 µM. In turn, `Fc1ccccc1-c1nnc(C2CCCN(c3ncc4ccccc4n3)C2)s1` (centres unmarked) [Compound 10, 2-(2-Fluorophenyl)-5-(1-(quinazolin-2-yl)piperidin-3-yl)-1,3,4-thiadiazole] returned an EC50 of 10 to 50 µM.

Take `O=C(c1ccc2ccn(CC3COC3)c2c1)N1CCCC(F)(c2nnc(-c3cccc(C(F)(F)F)n3)s2)C1` (centres unmarked) [Compound 25, (3-Fluoro-3-(5-(6-(trifluoromethyl)pyridin-2-yl)-1,3,4-thiadiazol-2-yl)piperidin-1-yl)(1-(oxetan-3-ylmethyl)-1H-indol-6-yl)methanone]: the EC50 was 10 to 50 µM.

On to `CCn1cnc2ncc(N3CCCC(c4nnc(-c5ccccc5)s4)C3)nc21` (centres unmarked) [Compound 20, 2-(1-(1-Ethyl-1H-imidazo[4,5-b]pyrazin-6-yl)piperidin-3-yl)-5-phenyl-1,3,4-thiadiazole], for which the EC50 is < 10 µM.

With `c1ccc(-c2nnc(C3CCCN(c4cnc5ccccc5n4)C3)s2)cc1` (centres unmarked) [Compound 11, 2-Phenyl-5-(1-(quinoxalin-2-yl)piperidin-3-yl)-1,3,4-thiadiazole], the EC50 was 10 to 50 µM. In turn, `O=C(c1ccc2ccn(C3COC3)c2c1)N1CCCC(F)(c2nnc(-c3cccc(C(F)(F)F)n3)s2)C1` (centres unmarked) [Compound 26, (3-Fluoro-3-(5-(6-(trifluoromethyl)pyridin-2-yl)-1,3,4-thiadiazol-2-yl)piperidin-1-yl)(1-(oxetan-3-yl)-1H-indol-6-yl)methanone] displayed an EC50 of 10 to 50 µM. `FC(F)Cn1ncc2ncc(N3C[C@@H]4[C@H](C3)[C@H]4c3nnc(-c4cccnc4C(F)(F)F)s3)nc21` [Compound 23, 2-((1R,5S,6r)-3-(1-(2,2-Difluoroethyl)-1H-pyrazolo[3,4-b]pyrazin-6-yl)-3-azabicyclo[3.1.0]hexan-6-yl)-5-(2-(trifluoromethyl)pyridin-3-yl)-1,3,4-thiadiazole]: the EC50 was > 100 µM. For the compound `O=C(c1ccc2cc[nH]c2c1)N1CCCC(c2nnc(-c3ccccc3)s2)C1` (centres unmarked) [Compound 12, (1H-Indol-6-yl)(3-(5-phenyl-1,3,4-thiadiazol-2-yl)piperidin-1-yl)methanone], the EC50 is 10 to 50 µM. Turning to `FC(F)(F)c1cccc(-c2nnc(C3(F)CCCN(c4cncc(-c5nncs5)n4)C3)s2)n1` (centres unmarked) [Compound 8, 2-(3-Fluoro-3-{5-[6-(trifluoromethyl)pyridin-2-yl]-1,3,4-thiadiazol-2-yl}piperidin-1-yl)-6-(1,3,4-thiadiazol-2-yl)pyrazine], the EC50 fell in the range of 10 to 50 µM. Under `FC(F)(F)Oc1ccccc1-c1nnc(C2(F)CCCN(c3cncc(-c4nncs4)n3)C2)s1` (centres unmarked) [Compound 29, 2-(1-(6-(1,3,4-Thiadiazol-2-yl)pyrazin-2-yl)-3-fluoropiperidin-3-yl)-5-(2-(trifluoromethoxy)phenyl)-1,3,4-thiadiazole] stands 10 to 50 µM; under `FC(F)(F)Cn1ncc2ncc(N3CCCC(F)(c4nnc(-c5cccc(C(F)(F)F)n5)s4)C3)nc21` (centres unmarked) [Compound 6, 2-(3-Fluoro-1-(1-(2,2,2-trifluoroethyl)-1H-pyrazolo[3,4-b]pyrazin-6-yl)piperidin-3-yl)-5-(6-(trifluoromethyl)pyridin-2-yl)-1,3,4-thiadiazole], 10 to 50 µM.

`FC(F)Cn1ncc2ncc(N3CCCC(c4nnc(-c5ccnc(C(F)(F)F)c5)s4)C3)nc21` (centres unmarked) [Compound 5, 2-(1-(1-(2,2-difluoroethyl)-1H-pyrazolo[3,4-b]pyrazin-6-yl)piperidin-3-yl)-5-(2-(trifluoromethyl)pyridin-4-yl)-1,3,4-thiadiazole]: the EC50 was < 10 µM. Under `CCn1ncc2ncc(N3CCCC(c4nnc(-c5ccccc5)s4)C3)nc21` (centres unmarked) [Compound 15, 2-(1-(1-Ethyl-1H-pyrazolo[3,4-b]pyrazin-6-yl)piperidin-3-yl)-5-phenyl-1,3,4-thiadiazole] stands 50 to 100 µM. To `FC(F)Cn1ncc2ncc(N3CCCC(c4nnc(-c5cccnc5C(F)(F)F)s4)C3)nc21` (centres unmarked) [Compound 7, 2-(1-(1-(2,2-Difluoroethyl)-1H-pyrazolo[3,4-b]pyrazin-6-yl)piperidin-3-yl)-5-(2-(trifluoromethyl)pyridin-3-yl)-1,3,4-thiadiazole] belongs 10 to 50 µM; to `FC(F)(F)Oc1ccccc1-c1nnc(C2CCCN(c3cncc(-c4nncs4)n3)C2)s1` (centres unmarked) [Compound 22, 2-(1-(6-(1,3,4-thiadiazol-2-yl)pyrazin-2-yl)piperidin-3-yl)-5-(2-(trifluoromethoxy)phenyl)-1,3,4-thiadiazole], < 10 µM.

Consider `Cc1nnc(C2CCCN(c3ncc4ccccc4n3)C2)s1` (centres unmarked) [Compound 16, 2-methyl-5-(1-(quinazolin-2-yl)piperidin-3-yl)-1,3,4-thiadiazole], for which the EC50 is > 100 µM. As for `FC(F)(F)c1cccc(-c2nnc(C3(F)CCCN(c4cnc5cnn(CC6COC6)c5n4)C3)s2)n1` (centres unmarked) [Compound 27, 2-(3-Fluoro-1-(1-(oxetan-3-ylmethyl)-1H-pyrazolo[3,4-b]pyrazin-6-yl)piperidin-3-yl)-5-(6-(trifluoromethyl)pyridin-2-yl)-1,3,4-thiadiazole], the EC50 is < 10 µM. The compound `c1ccc(-c2nnc(C3CCCN(c4ncc5ccccc5n4)C3)s2)cc1` (centres unmarked) [Compound 14, 2-Phenyl-5-(1-(quinazolin-2-yl)piperidin-3-yl)-1,3,4-thiadiazole] returned an EC50 of 10 to 50 µM. Take `O=C(c1ccc2cc[nH]c2c1)N1CCCC(c2nnc(-c3cccnc3C(F)(F)F)s2)C1` (centres unmarked) [Compound 17, (1H-Indol-6-yl)(3-(5-(2-(trifluoromethyl)pyridin-3-yl)-1,3,4-thiadiazol-2-yl)piperidin-1-yl)methanone]: the EC50 was 10 to 50 µM. For `CCn1ccc2ncc(N3CCCC(c4nnc(-c5ccccc5)s4)C3)nc21` (centres unmarked) [Compound 3, 2-(1-(5-ethyl-5H-pyrrolo[2,3-b]pyrazin-3-yl)piperidin-3-yl)-5-phenyl-1,3,4-thiadiazole], the EC50 was in the range of 10 to 50 µM. Under `O=C(c1ccc2cc[nH]c2c1)N1CCCC(c2nnc(-c3ccccc3C(F)(F)F)s2)C1` (centres unmarked) [Compound 9, (1H-Indol-6-yl)(3-(5-(2-(trifluoromethyl)phenyl)-1,3,4-thiadiazol-2-yl)piperidin-1-yl)methanone] stands 10 to 50 µM. `Fc1ccccc1-c1nnc(C2CCCN(c3cnc4ccccc4n3)C2)s1` (centres unmarked) [Compound 4, 2-(2-fluorophenyl)-5-(1-(quinoxalin-2-yl)piperidin-3-yl)-1,3,4-thiadiazole] came in with an EC50 of 10 to 50 µM. Regarding `FC(F)Cn1ncc2ncc(N3CCCC(c4nnc(-c5ccc(C(F)(F)F)nc5)s4)C3)nc21` (centres unmarked) [Compound 21, 2-(1-(1-(2,2-Difluoroethyl)-1H-pyrazolo[3,4-b]pyrazin-6-yl)piperidin-3-yl)-5-(6-(trifluoromethyl)pyridin-3-yl)-1,3,4-thiadiazole], the concentration for a half-maximal effect (EC50) was < 10 µM. To `COc1ncncc1-c1nnc(C2CCCN(c3cnc4ccccc4n3)C2)s1` (centres unmarked) [Compound 18, 2-(4-Methoxypyrimidin-5-yl)-5-(1-(quinoxalin-2-yl)piperidin-3-yl)-1,3,4-thiadiazole] belongs 10 to 50 µM. With `FC(F)Cn1ncc2ncc(N3CCCC(c4nnc(-c5ccccc5)s4)C3)nc21` (centres unmarked) [Compound 19, 2-(1-(1-(2,2-Difluoroethyl)-1H-pyrazolo[3,4-b]pyrazin-6-yl)piperidin-3-yl)-5-phenyl-1,3,4-thiadiazole], the EC50 was < 10 µM. Under `FC(F)Cn1ncc2ncc(N3CCCC(c4nnc(-c5cccc(C(F)(F)F)n5)s4)C3)nc21` (centres unmarked) [Compound 2, 2-(5-{1-[1-(2,2-difluoroethyl)pyrazolo[3,4-b]pyrazin-6-yl]piperidin-3-yl}-1,3,4-thiadiazol-2-yl)-6-(trifluoromethyl)pyridine] stands 10 to 50 µM.

Source of the values: patent US20240246952A1, “SMALL MOLECULE MODULATORS OF GLUCOCEREBROSIDASE ACTIVITY AND USES THEREOF” (Vanqua Bio, Inc., priority 2021, published 2024).
